Data as given in ChEMBL document CHEMBL1132382 (J Med Chem, 1999).
≈ marks a conversion by molar mass, not a printed value.

Legend:
Oryctolagus cuniculus [1] = species: Oryctolagus cuniculus; assay: The compound was evaluated for fall in intraocular pressure (IOP) of Glaucomatous rabbits after treatment with one drop (50 microL) of a 2% solution at 60 min (pH 6.5); format: functional, Eye
Carbonic anhydrase 1 = Carbonic anhydrase 1 (Homo sapiens, UniProt P00915)
Description: Inhibitory activity against human recombinant carbonic anhydrase I (CA1)

Oryctolagus cuniculus [2] = species: Oryctolagus cuniculus; assay: The compound was evaluated for fall in intraocular pressure (IOP) of Normotensive rabbits after treatment with one drop (50 microL) of a 2% solution at 60 min (pH 6.5); format: functional, Eye
Oryctolagus cuniculus [3] = species: Oryctolagus cuniculus; assay: The compound was evaluated for fall in intraocular pressure (IOP) of Normotensive rabbits after treatment with one drop (50 microL) of a 2% solution at 30 min (pH 6.5); format: functional, Eye
Oryctolagus cuniculus [4] = species: Oryctolagus cuniculus; assay: The compound was evaluated for fall in intraocular pressure (IOP) of Normotensive rabbits after treatment with one drop (50 microL) of a 2% solution at 90 min (pH 6.5); format: functional, Eye
Oryctolagus cuniculus [5] = species: Oryctolagus cuniculus; assay: The compound was evaluated for fall in intraocular pressure (IOP) of Glaucomatous rabbits after treatment with one drop (50 microL) of a 2% solution at 30 min (pH 6.5); format: functional, Eye
Oryctolagus cuniculus [6] = species: Oryctolagus cuniculus; assay: The compound was evaluated for fall in intraocular pressure (IOP) of Glaucomatous rabbits after treatment with one drop (50 microL) of a 2% solution at 90 min (pH 6.5); format: functional, Eye
Oryctolagus cuniculus [7] = species: Oryctolagus cuniculus; assay: The compound was evaluated for fall in intraocular pressure (IOP) of Normotensive rabbits after treatment with one drop (50 microL) of a 2% solution at 0 min (pH 6.5); format: functional, Eye
Oryctolagus cuniculus [8] = species: Oryctolagus cuniculus; assay: The compound was evaluated for fall in intraocular pressure (IOP) of Glaucomatous rabbits after treatment with one drop (50 microL) of a 2% solution at 0 min (pH 6.5); format: functional, Eye
Carbonic anhydrase 4 = biological target: T1, Carbonic anhydrase 4 (Bos taurus, UniProt Q95323)
T1 sequence (Q95323 whole entry): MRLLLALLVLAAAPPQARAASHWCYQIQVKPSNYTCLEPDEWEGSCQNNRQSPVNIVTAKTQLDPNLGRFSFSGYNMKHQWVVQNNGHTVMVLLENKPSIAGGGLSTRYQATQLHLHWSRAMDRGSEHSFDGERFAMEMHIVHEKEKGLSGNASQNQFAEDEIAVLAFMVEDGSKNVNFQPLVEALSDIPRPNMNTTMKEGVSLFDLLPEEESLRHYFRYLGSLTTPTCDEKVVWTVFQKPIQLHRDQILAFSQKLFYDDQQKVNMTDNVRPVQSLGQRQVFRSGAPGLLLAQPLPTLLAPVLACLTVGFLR
Description: Inhibitory activity against bovine carbonic anhydrase IV (CA4), isolated from bovine lung microsomes

Oryctolagus cuniculus [9] = species: Oryctolagus cuniculus; assay: The compound was evaluated for fall in intraocular pressure (IOP) of Normotensive rabbits after treatment with one drop (50 microL) of a 2% solution at 0 min (pH 5.5); format: functional, Eye
Oryctolagus cuniculus [10] = species: Oryctolagus cuniculus; assay: The compound was evaluated for fall in intraocular pressure (IOP) of Normotensive rabbits after treatment with one drop (50 microL) of a 2% solution at 30 min (pH 5.5); format: functional, Eye
Oryctolagus cuniculus [11] = species: Oryctolagus cuniculus; assay: The compound was evaluated for fall in intraocular pressure (IOP) of Normotensive rabbits after treatment with one drop (50 microL) of a 2% solution at 90 min (pH 5.5); format: functional, Eye
Oryctolagus cuniculus [12] = species: Oryctolagus cuniculus; assay: The compound was evaluated for fall in intraocular pressure (IOP) of Narmotensive rabbits after treatment with one drop (50 microL) of a 2% solution at 90 min (pH 6.4); format: functional, Eye
Oryctolagus cuniculus [13] = species: Oryctolagus cuniculus; assay: The compound was evaluated for fall in intraocular pressure (IOP) of Glaucomatous rabbits after treatment with one drop (50 microL) of a 2% solution at 0 min ((pH 6.4); format: functional, Eye
Oryctolagus cuniculus [14] = species: Oryctolagus cuniculus; assay: The compound was evaluated for fall in intraocular pressure (IOP) of Glaucomatous rabbits after treatment with one drop (50 microL) of a 2% solution at 30 min (pH 6.4); format: functional, Eye
Oryctolagus cuniculus [15] = species: Oryctolagus cuniculus; assay: The compound was evaluated for fall in intraocular pressure (IOP) of Glaucomatous rabbits after treatment with one drop (50 microL) of a 2% solution at 90 min (pH 6.4); format: functional, Eye
Oryctolagus cuniculus [16] = species: Oryctolagus cuniculus; assay: The compound was evaluated for fall in intraocular pressure (IOP) of Narmotensive rabbits after treatment with one drop (50 microL) of a 2% solution at 0 min (pH 6.4); format: functional, Eye
Oryctolagus cuniculus [17] = species: Oryctolagus cuniculus; assay: The compound was evaluated for fall in intraocular pressure (IOP) of Glaucomatous rabbits after treatment with one drop (50 microL) of a 2% solution at 60 min (pH 6.4); format: functional, Eye
Oryctolagus cuniculus [18] = species: Oryctolagus cuniculus; assay: The compound was evaluated for fall in intraocular pressure (IOP) of Narmotensive rabbits after treatment with one drop (50 microL) of a 2% solution at 60 min (pH 6.4); format: functional, Eye
Oryctolagus cuniculus [19] = species: Oryctolagus cuniculus; assay: The compound was evaluated for fall in intraocular pressure (IOP) of Narmotensive rabbits after treatment with one drop (50 microL) of a 2% solution at 30 min (pH 6.4); format: functional, Eye
physchem = conditions: buffer, pH 7.4
[20] = octanol/water
Description: Partition coefficient (logD) (chloroform/buffer)

Oryctolagus cuniculus [21] = species: Oryctolagus cuniculus; assay: The compound was evaluated for fall in intraocular pressure (IOP) of Normotensive rabbits after treatment with one drop (50 microL) of a 2% solution at 60 min (pH 5.5); format: functional, Eye
[22] = not given; remark: listed apart in the source
Oryctolagus cuniculus [23] = species: Oryctolagus cuniculus; assay: The compound was evaluated for fall in intraocular pressure (IOP) of Normotensive rabbits after treatment with one drop (50 microL) of a 2% solution at 0 min (pH 6.4); format: functional, Eye
Oryctolagus cuniculus [24] = species: Oryctolagus cuniculus; assay: The compound was evaluated for fall in intraocular pressure (IOP) of Normotensive rabbits after treatment with one drop (50 microL) of a 2% solution at 30 min (pH 6.4); format: functional, Eye
Oryctolagus cuniculus [25] = species: Oryctolagus cuniculus; assay: The compound was evaluated for fall in intraocular pressure (IOP) of Normotensive rabbits after treatment with one drop (50 microL) of a 2% solution at 60 min (pH 6.4); format: functional, Eye
Oryctolagus cuniculus [26] = species: Oryctolagus cuniculus; assay: The compound was evaluated for fall in intraocular pressure (IOP) of Normotensive rabbits after treatment with one drop (50 microL) of a 2% solution at 90 min (pH 6.4); format: functional, Eye

Carbonic anhydrase 1, sequence (P00915 whole entry): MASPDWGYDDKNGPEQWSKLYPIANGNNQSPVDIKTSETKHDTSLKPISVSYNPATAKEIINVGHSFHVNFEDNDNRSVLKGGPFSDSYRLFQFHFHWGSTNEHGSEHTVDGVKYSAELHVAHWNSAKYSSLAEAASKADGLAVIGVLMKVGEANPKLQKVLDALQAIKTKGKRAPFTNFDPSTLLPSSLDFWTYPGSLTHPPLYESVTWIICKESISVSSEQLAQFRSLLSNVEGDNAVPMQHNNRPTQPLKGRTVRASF

Q: For CN(CC(=O)Nc1nnc(S(N)(=O)=O)s1)C(=N)N, which “Change in IOP” value (Oryctolagus cuniculus [1]) is on record?
A: 13.4 mmHg

Q: And the Ki (Carbonic anhydrase 1)?
A: 170 nM

Q: And the “Change in IOP” value (Oryctolagus cuniculus [2])?
A: 10.1 mmHg

Q: And the “Change in IOP” value (Oryctolagus cuniculus [3])?
A: 6.5 mmHg

Q: What about the “Change in IOP” value (Oryctolagus cuniculus [4]) of the same compound?
A: 9.1 mmHg

Q: And the “Change in IOP” value (Oryctolagus cuniculus [5])?
A: 8.5 mmHg

Q: What about the “Change in IOP” value (Oryctolagus cuniculus [6]) of the same compound?
A: 14.5 mmHg

Q: What about the “Change in IOP” value (Oryctolagus cuniculus [7]) of the same compound?
A: 0 mmHg

Q: What about the “Change in IOP” value (Oryctolagus cuniculus [8]) of the same compound?
A: 0 mmHg

Q: And the Ki (Carbonic anhydrase 4)?
A: 35 nM

Q: Which results are given for CNCC(=O)/N=c1\sc(S(N)(=O)=O)nn1C?
A: Ki (Carbonic anhydrase 1): 290 nM; Change in IOP (Oryctolagus cuniculus [2]): 6.2 mmHg; Change in IOP (Oryctolagus cuniculus [3]): 3.3 mmHg; Change in IOP (Oryctolagus cuniculus [4]): 5.5 mmHg; Change in IOP (Oryctolagus cuniculus [7]): 0 mmHg; Ki (Carbonic anhydrase 4): 43 nM

Q: What does the source list for NCC(=O)Nc1nnc(S(N)(=O)=O)s1?
A: Ki (Carbonic anhydrase 1): 350 nM; Change in IOP (Oryctolagus cuniculus [9]): 0 mmHg; Ki (Carbonic anhydrase 4): 55 nM; Change in IOP (Oryctolagus cuniculus [10]): 2.9 mmHg; Change in IOP (Oryctolagus cuniculus [11]): 4.6 mmHg

Q: Which Ki (Carbonic anhydrase 1) does the source give for NCC(=O)NCC(=O)Nc1nnc(S(N)(=O)=O)s1 here?
A: 320 nM

Q: And the “Change in IOP” value (Oryctolagus cuniculus [12])?
A: 8.9 mmHg

Q: What about the “Change in IOP” value (Oryctolagus cuniculus [13]) of the same compound?
A: 0 mmHg

Q: And the “Change in IOP” value (Oryctolagus cuniculus [14])?
A: 7.7 mmHg

Q: What about the “Change in IOP” value (Oryctolagus cuniculus [15]) of the same compound?
A: 13.8 mmHg

Q: What about the “Change in IOP” value (Oryctolagus cuniculus [16]) of the same compound?
A: 0 mmHg

Q: What about the “Change in IOP” value (Oryctolagus cuniculus [17]) of the same compound?
A: 12 mmHg

Q: What about the “Change in IOP” value (Oryctolagus cuniculus [18]) of the same compound?
A: 9 mmHg

Q: And the Ki (Carbonic anhydrase 4)?
A: 45 nM

Q: And the “Change in IOP” value (Oryctolagus cuniculus [19])?
A: 5.6 mmHg

Q: What does the source list for CNCC(=O)Nc1cc(Cl)c(S(N)(=O)=O)cc1S(N)(=O)=O?
A: solubility (physchem): 54 mM (≈ 19.3 mg/mL); Ki (Carbonic anhydrase 1): 350 nM; logD [20]: 1.569; Change in IOP (Oryctolagus cuniculus [21]): 5.2 mmHg; Change in IOP (Oryctolagus cuniculus [9]): 0 mmHg; kin: 4.6 h⁻¹; Ki (Carbonic anhydrase 4): 50 nM; kin [22]: 7.9 h⁻¹; Change in IOP (Oryctolagus cuniculus [10]): 2.5 mmHg; Change in IOP (Oryctolagus cuniculus [11]): 4.5 mmHg

Q: Which results are given for CNCC(=O)Nc1ccc(S(=O)(=O)Nc2ccc(S(N)(=O)=O)cc2)cc1?
A: Ki (Carbonic anhydrase 1): 50 nM; Change in IOP (Oryctolagus cuniculus [2]): 6.3 mmHg; Change in IOP (Oryctolagus cuniculus [3]): 2.5 mmHg; Change in IOP (Oryctolagus cuniculus [4]): 5.5 mmHg; Change in IOP (Oryctolagus cuniculus [7]): 0 mmHg; Ki (Carbonic anhydrase 4): 62 nM

Q: For NCC(=O)NCC(=O)Nc1c(S(N)(=O)=O)cc(S(N)(=O)=O)c(Cl)c1Cl, which solubility (physchem) is on record?
A: 59 mM (≈ 25.6 mg/mL)

Q: What about the Ki (Carbonic anhydrase 1) of the same compound?
A: 500 nM

Q: And the logD [20]?
A: 2.133

Q: And the “Change in IOP” value (Oryctolagus cuniculus [23])?
A: 0 mmHg

Q: What about the “Change in IOP” value (Oryctolagus cuniculus [24]) of the same compound?
A: 3.2 mmHg

Q: What about the “Change in IOP” value (Oryctolagus cuniculus [25]) of the same compound?
A: 7 mmHg

Q: What about the kin of the same compound?
A: 4.8 h⁻¹

Q: And the Ki (Carbonic anhydrase 4)?
A: 56 nM

Q: What about the “Change in IOP” value (Oryctolagus cuniculus [26]) of the same compound?
A: 4.8 mmHg

Q: And the kin [22]?
A: 11.5 h⁻¹
